What all share (format): in vivo, Arabidopsis thaliana
Experiment [1] relates to Arabidopsis plants. In words: Effect of the tryptophan analog 5-methyl tryptophan on growth of transgenic plants. As to conditions: plants p17, p9 and p5 expressing 35S:PRO-TP-PheA*-3HA; 100 μM, three weeks. The procedure:
FIG. 10 illustrates the effect of tryptophan analog on transgenic plants expressing: (i) the 35S:PRO-TP-PheA*-3HA gene (p5, p9; p17); (ii) dominant mutation, resistant to tryptophan analogs due to high levels of tryptophan (5× normal) and anthranilate synthase (2× normal), amt1-1; (iii) control plants expressing an empty Ti vector (con); and (iv) wild type Arabidopsis Colombia ecotype (col). FIG. 10A: Photograph of plants growing for three weeks on zero and 100 μM 5-methyl tryptophan (5MT). FIG. 10B: Quantitative analysis of the number of seedlings whose growth was arrested by 5MT.
To evaluate the biosynthesis level of tryptophan, the effects of tryptophan analog on the transgenic plants of the present invention and on positive-control and control plants were examined. Plants used were as follows: i) plants of the present invention transformed with the 35S:PRO-TP-PheA*-3HA construct; (ii) positive-control transgenic plants having the dominant mutation amt1-1, which are resistant to tryptophan analogs due to high levels of tryptophan (5× normal) and anthranilate synthase (2× normal), the first enzyme of tryptophan biosynthesis; (iii) control plants expressing an empty Ti vector; and (iv) wild type Arabidopsis Colombia ecotype (col). Plants were grown for three weeks on zero and 100 μM 5-methyl tryptophan (5MT).

Experiment [2] relates to Arabidopsis plants. In words: Effect of the HPPD inhibitor Isoxaflutole on growth of control and transgenic Arabidopsis plants. Conditions: 10 ppb Isoxaflutole in MS medium. The procedure: Plants were grown on MS medium in the presence of 10 ppb Isoxaflutole. […] FIG. 9A: Chlorophyll content. FIG. 9B: Photograph of the plants.
Western blot analysis was performed with anti-HA tag antibodies, in order to identify the mutated plants which are translated the chemeric gene (Stepansky A and Galili G 2003 Plant Physiol 133, 1407-1415). Additionally, T2 generation plants were examined and lines with a single insertion gene were selected based on 3:1 genetic segregation. For testing the growth of the transgenic plants producing elevated concentrations of the compounds of the invention, homozygous PheA* plants were germinated on regular Nitch medium. The 4-Hydroxy-phenylpyruvate dioxygenase (HPPD) inhibitor Isoxaflutole was used as previously described (Rippert P et al. 2004 Plant Physiol., 134:92-100).
Tyrosine is catabolized in plants to a number of metabolites including hydroxyl-phenylpyruvate (p-HPP), homogentistic acid (HGA) and tocopherols. One of the enzymes in the Tyr catabolism pathways is 4-Hydroxy-phenylpyruvate dioxygenase (HPPD), which catalyzes the conversion of p-HPP to HGA. HGA is derived exclusively from the catabolism of tyrosine and is also a substrate for a number of other metabolites, such as tocopherols. […]

The subject of experiment [3] is Arabidopsis plants. In words: Sensitivity of germination to external application of phenylalanine. Conditions: PheA* genotypes compared to control genotype; 4 mM phenylalanine in medium. The procedure:
FIG. 11A: Morphological phenotype of the control genotype (a, e) and the PheA* expressing genotypes p5 (b, f), p9 (c, g) and p17 (d, h). Plants were at the age of 10 days (a-d) and two months (e-f). FIG. 11B: Seeds of the above control and transgenic plants were germinated on media lacking (left) or containing (right) 4 mM Phe.
Amino acids are generally toxic to plants when added externally at relatively high concentrations. We therefore also used this trait to further confirm that the PheA* plants overproduce phenylalanine, by testing for sensitivity to external application of phenylalanine.

`Cc1ccc2[nH]cc(C[C@H](N)C(=O)O)c2c1` [5MT, 5-methyl tryptophan]: the growth of plants entry in the experiment with Arabidopsis plants [1] is on record as “strongly inhibited”.
Consider `CS(=O)(=O)c1cc(C(F)(F)F)ccc1C(=O)c1cnoc1C1CC1` [Isoxaflutole], for which the results for the chlorotic symptoms entry in the experiment with Arabidopsis plants [2] (control plants expressing an empty Ti plasmid) and in the experiment with Arabidopsis plants [2] (transgenic plants expressing 35S:PRO-TP-PheA*-3HA) were “developed chlorotic symptoms” and “remained green”, respectively.
`N[C@@H](Cc1ccccc1)C(=O)O` [phenylalanine]: the germination entry in the experiment with Arabidopsis plants [3] is listed as “significantly inhibited”.
